Each structure is given as a SMILES string.

Test [1] deals with QD2-l (DNA, G4) GGTTGGCGCGAAGCATTCGCGGGTTGG
In words: NMR titration (imino protons, ROESY exchange). Conditions: K+ (10 mM potassium phosphate), pH 7.0, 20 °C, 0.5 mM DNA, slow exchange, intercalation at junction.

The subject of test [2] is QD3-sbl (DNA, G4) TTAGGTGGGTAGGGTGGGCTAGTCATTTTGACTAGG
Nature of the test: ITC. Conditions: 120 mM K+; 20 mM potassium phosphate, 100 mM KCl, pH 7.0, 5% DMSO, 40 °C; high-affinity site, two-site fit.

The test system is the same in test [3]. Nature of the test: NMR solution structure. Conditions: K+ (10 mM potassium phosphate); pH 7.0, 30 °C; about 2% DMSO-d6; intercalation at quadruplex-duplex junction.

For `CN(C)CCCNc1c2ccccc2nc2c1[nH]c1ccccc12`, the binding entry in test [1] and in test [3] was “yes” in each case. Besides, the Ka result in test [2] is given as “(1.1±0.3) ⋅ 10^7 M^-1”.
Consider `C[n+]1c2ccccc2cc2[nH]c3ccccc3c21`, for which the Ka result in test [2] was “(3.3±0.7) ⋅ 10^6 M^-1”.

For the origin of these results see article PMC9303235 (2022).
